# Active and inactive are the calls of the source. The calls are words filed in the database; no cut-off is given here.
# What was measured:
# [1] = biological target: T1, Peptidyl-prolyl cis-trans isomerase NIMA-interacting 1 (Homo sapiens, UniProt Q13526, S16A/Y23A); assay: Binding affinity to N-terminal MBP fused and Texas-red-labeled full-length human Pin1 S16A/Y23A mutant expressed in Escherichia coli assessed as increase in fluorescence anisotropy by spectrofluorimetry; conditions: read-out: Kd
# Serum [2] = assay: Drug level in 25% human serum treated with at 5 uM peptide-1 assessed as compound formation incubated at 37 degC by MALDI-TOF mass spectrometry; assay type: ADME, cell-free
# [3] = Stability in 25% human serum assessed as compound degradation at 5 uM after 3 hrs incubated at 37 degC by reversed-phase HPLC method; assay type: ADME, cell-free; conditions: read-out: Drug degradation
# Serum [4] = assay: Drug metabolism in 25% human serum assessed as compound 2 formation at 5 uM incubated at 37 degC by MALDI-TOF mass spectrometry; assay type: ADME, cell-free
# HeLa [5] = assay: Drug uptake in human HeLa cells assessed as mean fluorescence intensity at 5 uM using FITC-labeled compound incubated for 2 hrs by flow cytometry (reference value: 86); assay type: ADME, cell-based
# HeLa [6] = assay: Antiproliferative activity against human HeLa cells assessed as reduction in cell growth incubated for 72 hrs by MTT assay; assay type: functional, cell-based; conditions: Homo sapiens, HeLa, 72 h; read-out: IC50
# [7] = tested on: Peptidyl-prolyl cis-trans isomerase NIMA-interacting 1 (Homo sapiens), Q13526 [S16A,Y23A]; assay: (§1) Inhibition of FITC-labeled peptide-1 binding to N-terminal MBP fused and Texas-red-labeled full-length human Pin1 S16A/Y23A mutant expressed in Escherichia coli assessed as increase in fluorescence anisotropy by spectrofluorimetry
# [8] = biological target: T1, Peptidyl-prolyl cis-trans isomerase NIMA-interacting 1; assay: as §1
# [9] = tested on: Peptidyl-prolyl cis-trans isomerase NIMA-interacting 1 (Homo sapiens), Q13526 [S16A,Y23A]; assay: (§2) Inhibition of N-terminal MBP fused and Texas-red-labeled full-length human Pin1 S16A/Y23A mutant expressed in Escherichia coli pre-incubated for 10 mins before addition of Suc-Ala-Glu-Pro-Phe-pNA substrate in presence of alpha-chymotrypsin by UV/Vis spectrophotometry
# [10] = biological target: T1, Peptidyl-prolyl cis-trans isomerase NIMA-interacting 1; assay: as §2
# Albumin = Albumin (Bos taurus, UniProt P02769); assay: Binding affinity to bovine serum albumin; assay type: ADME
# [11] = biological target: T2, Tyrosine-protein phosphatase non-receptor type 1 (Homo sapiens) (UniProt P18031); assay: Binding affinity to PTP1B (unknown origin)
# T2 sequence (whole entry): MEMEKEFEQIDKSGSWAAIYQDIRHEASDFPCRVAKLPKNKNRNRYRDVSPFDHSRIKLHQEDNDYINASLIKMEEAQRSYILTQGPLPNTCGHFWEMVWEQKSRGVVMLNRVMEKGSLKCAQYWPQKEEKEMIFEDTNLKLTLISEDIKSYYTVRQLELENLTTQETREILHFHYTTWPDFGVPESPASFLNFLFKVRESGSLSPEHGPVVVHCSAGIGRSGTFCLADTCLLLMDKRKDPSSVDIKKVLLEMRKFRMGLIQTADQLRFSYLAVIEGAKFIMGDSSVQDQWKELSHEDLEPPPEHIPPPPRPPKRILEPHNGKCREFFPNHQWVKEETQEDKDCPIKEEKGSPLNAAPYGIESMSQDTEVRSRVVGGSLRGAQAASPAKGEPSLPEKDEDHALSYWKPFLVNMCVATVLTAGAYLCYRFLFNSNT
# [12] = biological target: Tyrosine-protein phosphatase non-receptor type 6 (Homo sapiens) (UniProt P29350); assay: Binding affinity to SHP1 (unknown origin)
# [13] = biological target: T3, Tyrosine-protein phosphatase non-receptor type 11 (Homo sapiens) (UniProt Q06124); assay: Binding affinity to SHP2 (unknown origin)
# T3 sequence (whole entry): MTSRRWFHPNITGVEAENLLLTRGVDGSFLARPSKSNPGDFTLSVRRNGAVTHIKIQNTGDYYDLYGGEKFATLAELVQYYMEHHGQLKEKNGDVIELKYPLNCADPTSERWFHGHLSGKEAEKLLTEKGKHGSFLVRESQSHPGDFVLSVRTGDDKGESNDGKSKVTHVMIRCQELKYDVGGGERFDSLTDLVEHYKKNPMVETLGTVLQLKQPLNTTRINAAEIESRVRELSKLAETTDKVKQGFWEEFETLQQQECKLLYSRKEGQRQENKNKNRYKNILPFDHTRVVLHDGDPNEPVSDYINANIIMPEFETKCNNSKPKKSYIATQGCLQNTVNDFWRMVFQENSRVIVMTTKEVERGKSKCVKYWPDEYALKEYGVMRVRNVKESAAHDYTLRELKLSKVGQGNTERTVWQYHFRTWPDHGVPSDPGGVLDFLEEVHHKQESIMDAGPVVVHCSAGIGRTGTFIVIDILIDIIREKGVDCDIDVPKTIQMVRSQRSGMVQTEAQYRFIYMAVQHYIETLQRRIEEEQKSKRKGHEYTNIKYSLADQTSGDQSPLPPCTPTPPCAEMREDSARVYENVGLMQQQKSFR
# [14] = biological target: Growth factor receptor-bound protein 2 (Homo sapiens) (UniProt P62993); assay: Binding affinity to Grb2 SH2 domain (unknown origin)
# [15] = biological target: GTPase KRas (Homo sapiens) (UniProt P01116); assay: Binding affinity to K-Ras (unknown origin)
# [16] = biological target: Tumor necrosis factor (Homo sapiens) (UniProt P01375); assay: Binding affinity to TNFalpha (unknown origin)
# [17] = biological target: T4, Peptidyl-prolyl cis-trans isomerase NIMA-interacting 4 (Homo sapiens, UniProt Q9Y237); assay: Inhibition of Pin4 (unknown origin) at 5 uM pre-incubated for 10 mins before addition of Suc-Ala-Glu-Pro-Phe-pNA substrate in presence of alpha-chymotrypsin by UV/Vis spectrophotometry
# [18] = biological target: T4, Peptidyl-prolyl cis-trans isomerase NIMA-interacting 4; assay: Inhibition of Pin4 (unknown origin) pre-incubated for 10 mins before addition of Suc-Ala-Glu-Pro-Phe-pNA substrate in presence of alpha-chymotrypsin by UV/Vis spectrophotometry
# [19] = biological target: Peptidyl-prolyl cis-trans isomerase A (Homo sapiens) (UniProt P62937); assay: Inhibition of cyclophilin A (unknown origin) up to 5 uM pre-incubated for 10 mins before addition of Suc-Ala-Glu-Pro-Phe-pNA substrate in presence of alpha-chymotrypsin by UV/Vis spectrophotometry
# [20] = Stability in 25% human serum assessed as intact parent compound level at 5 uM after 6 hrs incubated at 37 degC by reversed-phase HPLC method; assay type: ADME, cell-free; conditions: read-out: Stability
# HeLa [21] = assay: Growth inhibition of human HeLa cells at 5 uM incubated for 3 days by MTT assay; assay type: functional; conditions: 72 h, read-out: GI
# [22] = biological target: Peptidyl-prolyl cis-trans isomerase NIMA-interacting 1 (Homo sapiens) (UniProt Q13526); assay: Inhibition of Pin1 in human HeLa cells assessed as increase in PML protein levels at 0.2 uM incubated for 2 hrs by Western blotting method relative to untreated control; assay type: cell-based
# [23] = biological target: Peptidyl-prolyl cis-trans isomerase NIMA-interacting 1 (Homo sapiens) (UniProt Q13526); assay: Inhibition of Pin1 in human HeLa cells assessed as increase in PML protein levels at 1 uM incubated for 2 hrs by Western blotting method relative to untreated control; assay type: cell-based
# FKBP1A = assay: Inhibition of FKBP12 (unknown origin) up to 5 uM pre-incubated for 10 mins before addition of Suc-Ala-Glu-Pro-Phe-pNA substrate in presence of alpha-chymotrypsin by UV/Vis spectrophotometry; conditions: Homo sapiens
# T1 sequence (Q13526 whole entry S16A/Y23A, the tested form may be a part): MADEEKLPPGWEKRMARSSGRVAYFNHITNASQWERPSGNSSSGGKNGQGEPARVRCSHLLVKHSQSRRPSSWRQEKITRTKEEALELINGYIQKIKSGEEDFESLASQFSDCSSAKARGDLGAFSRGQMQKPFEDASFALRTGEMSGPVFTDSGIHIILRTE
# Peptidyl-prolyl cis-trans isomerase NIMA-interacting 1 (Homo sapiens), Q13526 [S16A,Y23A], sequence (Q13526 whole entry S16A/Y23A, the tested form may be a part): as above
# Peptidyl-prolyl cis-trans isomerase NIMA-interacting 1 (Homo sapiens), sequence (Q13526 whole entry): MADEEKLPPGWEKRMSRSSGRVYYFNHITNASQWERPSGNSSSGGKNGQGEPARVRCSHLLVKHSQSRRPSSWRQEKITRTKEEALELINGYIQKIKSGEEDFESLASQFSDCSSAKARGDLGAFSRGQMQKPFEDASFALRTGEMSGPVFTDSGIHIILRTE
# T4 sequence (Q9Y237 whole entry): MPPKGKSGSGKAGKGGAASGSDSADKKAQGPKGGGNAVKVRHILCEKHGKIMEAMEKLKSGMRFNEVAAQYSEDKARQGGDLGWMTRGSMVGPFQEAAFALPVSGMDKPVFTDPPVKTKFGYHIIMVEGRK
# Peptidyl-prolyl cis-trans isomerase A (Homo sapiens), sequence (P62937 whole entry, looked up): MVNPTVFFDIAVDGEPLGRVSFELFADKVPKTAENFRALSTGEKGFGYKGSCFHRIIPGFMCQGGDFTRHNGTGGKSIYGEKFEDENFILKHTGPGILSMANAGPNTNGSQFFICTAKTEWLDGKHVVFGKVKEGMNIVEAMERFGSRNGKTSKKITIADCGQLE
# Albumin, sequence (P02769 whole entry): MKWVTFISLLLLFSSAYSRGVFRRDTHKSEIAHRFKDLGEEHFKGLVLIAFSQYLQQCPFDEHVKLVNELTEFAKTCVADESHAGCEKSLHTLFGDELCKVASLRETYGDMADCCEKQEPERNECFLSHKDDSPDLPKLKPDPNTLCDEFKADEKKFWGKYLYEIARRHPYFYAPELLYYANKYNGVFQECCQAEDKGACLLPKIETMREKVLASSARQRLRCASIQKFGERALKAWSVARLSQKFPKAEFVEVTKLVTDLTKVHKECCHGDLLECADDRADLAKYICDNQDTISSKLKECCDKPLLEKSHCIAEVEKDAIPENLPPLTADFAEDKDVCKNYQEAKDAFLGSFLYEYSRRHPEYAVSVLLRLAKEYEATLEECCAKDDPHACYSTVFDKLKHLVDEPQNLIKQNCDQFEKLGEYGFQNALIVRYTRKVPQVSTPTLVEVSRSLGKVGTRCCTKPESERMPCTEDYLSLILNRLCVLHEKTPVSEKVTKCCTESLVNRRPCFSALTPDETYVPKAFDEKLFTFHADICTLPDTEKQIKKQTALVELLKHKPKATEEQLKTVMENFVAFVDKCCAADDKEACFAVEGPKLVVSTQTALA
# GTPase KRas (Homo sapiens), sequence (P01116 whole entry, looked up): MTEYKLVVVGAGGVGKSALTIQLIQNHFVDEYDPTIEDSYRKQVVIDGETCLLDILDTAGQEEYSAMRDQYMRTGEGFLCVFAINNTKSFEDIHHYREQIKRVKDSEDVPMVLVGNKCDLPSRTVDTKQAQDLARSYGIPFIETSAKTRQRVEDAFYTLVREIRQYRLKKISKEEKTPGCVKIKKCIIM
# Tyrosine-protein phosphatase non-receptor type 6 (Homo sapiens), sequence (P29350 whole entry): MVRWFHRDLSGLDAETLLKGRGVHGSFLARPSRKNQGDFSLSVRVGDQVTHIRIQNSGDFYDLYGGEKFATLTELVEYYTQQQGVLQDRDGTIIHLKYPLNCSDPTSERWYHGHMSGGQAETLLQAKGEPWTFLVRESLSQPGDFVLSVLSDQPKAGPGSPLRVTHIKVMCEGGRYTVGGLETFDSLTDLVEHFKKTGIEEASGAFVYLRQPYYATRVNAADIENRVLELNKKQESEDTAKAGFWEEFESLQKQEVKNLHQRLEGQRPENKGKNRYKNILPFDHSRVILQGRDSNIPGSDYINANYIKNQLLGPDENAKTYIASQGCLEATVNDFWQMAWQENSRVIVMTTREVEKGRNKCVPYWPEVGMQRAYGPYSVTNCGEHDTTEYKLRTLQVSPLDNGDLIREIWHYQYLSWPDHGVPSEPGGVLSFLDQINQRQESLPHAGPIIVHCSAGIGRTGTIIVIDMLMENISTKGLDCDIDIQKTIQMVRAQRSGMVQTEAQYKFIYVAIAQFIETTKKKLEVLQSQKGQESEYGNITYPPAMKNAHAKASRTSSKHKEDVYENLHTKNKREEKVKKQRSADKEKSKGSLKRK
# Growth factor receptor-bound protein 2 (Homo sapiens), sequence (P62993 whole entry, looked up, the tested form may be a part): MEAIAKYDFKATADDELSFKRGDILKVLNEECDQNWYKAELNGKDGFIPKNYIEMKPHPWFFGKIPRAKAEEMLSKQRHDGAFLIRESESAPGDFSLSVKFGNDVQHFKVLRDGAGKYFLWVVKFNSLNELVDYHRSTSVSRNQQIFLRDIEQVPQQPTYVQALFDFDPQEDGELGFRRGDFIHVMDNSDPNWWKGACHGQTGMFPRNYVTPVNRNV
# Tumor necrosis factor (Homo sapiens), sequence (P01375 whole entry): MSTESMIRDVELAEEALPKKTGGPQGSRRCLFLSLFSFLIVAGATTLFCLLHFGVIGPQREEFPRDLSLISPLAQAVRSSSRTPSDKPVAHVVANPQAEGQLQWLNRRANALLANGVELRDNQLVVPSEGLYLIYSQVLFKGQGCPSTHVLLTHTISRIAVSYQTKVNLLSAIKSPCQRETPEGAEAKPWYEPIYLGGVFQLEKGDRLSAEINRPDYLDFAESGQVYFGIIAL
smiles,measurement,setting,value
C[C@@H]1NC(=O)[C@H](CCCNC(=N)N)NC(=O)[C@H](Cc2ccc3ccccc3c2)NC(=O)[C@@H]2CCCCN2C(=O)[C@@H]([C@H](C)O)NC(=O)CN(C)C(=O)[C@@H](C)NC(=O)c2cc3cc(c2)C(=O)NC[C@H](NC(=O)[C@@H](C)NC1=O)C(=O)N[C@@H](Cc1ccccc1)C(=O)N[C@@H](Cc1ccc2ccccc2c1)C(=O)N[C@@H](CCCNC(=N)N)C(=O)N[C@@H](CCCNC(=N)N)C(=O)N[C@@H](CCCNC(=N)N)C(=O)N[C@@H](CCCNC(=N)N)C(=O)N[C@H](C(=O)N[C@@H](CCCCN)C(=O)O)CNC3=O,Kd,[1],620 nM
same,Drug metabolism,Serum [2],metabolite_detected
C[C@@H]1NC(=O)[C@H](CCCNC(=N)N)NC(=O)[C@H](Cc2ccc3ccccc3c2)NC(=O)[C@@H]2CCCCN2C(=O)[C@@H]([C@H](C)OP(=O)(O)O)NC(=O)CN(C)C(=O)[C@@H](C)NC(=O)c2cc3cc(c2)C(=O)NC[C@H](NC(=O)[C@@H](C)NC1=O)C(=O)N[C@@H](Cc1ccccc1)C(=O)N[C@@H](Cc1ccc2ccccc2c1)C(=O)N[C@@H](CCCNC(=N)N)C(=O)N[C@@H](CCCNC(=N)N)C(=O)N[C@@H](CCCNC(=N)N)C(=O)N[C@@H](CCCNC(=N)N)C(=O)N[C@H](C(=O)N[C@@H](CCCCN)C(=O)O)CNC3=O,Kd,[1],72 nM
same,"metabolised at 3 h, 5 µM",[3],50%
same,Drug metabolism,Serum [4],metabolite_detected
same,Flu intensity,HeLa [5],2040
same,IC50,HeLa [6],2500 nM
C[C@@H]1NC(=O)[C@H](CCCNC(=N)N)NC(=O)[C@H](Cc2ccc3ccccc3c2)NC(=O)[C@H]2CCCCN2C(=O)[C@@H]([C@H](C)O)NC(=O)[C@H](Cc2ccc(F)cc2)NC(=O)[C@@H](Cc2ccc(F)cc2)NC(=O)c2cc3cc(c2)C(=O)NC[C@H](NC(=O)[C@@H](C)NC1=O)C(=O)N[C@@H](Cc1ccccc1)C(=O)N[C@@H](Cc1ccc2ccccc2c1)C(=O)N[C@@H](CCCNC(=N)N)C(=O)N[C@@H](CCCNC(=N)N)C(=O)N[C@@H](CCCNC(=N)N)C(=O)N[C@@H](CCCNC(=N)N)C(=O)N[C@H](C(=O)N[C@@H](CCCCN)C(=O)O)CNC3=O,Kd,[1],120 nM
same,inhibition,[7],Dose-dependent effect
same,IC50,[8],190 nM
same,inhibition,[9],Dose-dependent effect
same,IC50,[10],170 nM
same,Kd,Albumin,20000 nM
same,Activity,[11],inactive
same,Activity,[12],inactive
same,Activity,[13],inactive
same,Activity,[14],inactive
same,Activity,[15],inactive
same,Activity,[16],inactive
same,inhibition,[17],15%
same,IC50,[18],34000 nM
same,inhibition,[19],inactive
same,"remaining at 6 h, 5 µM",[20],97%
same,Flu intensity,HeLa [5],8320
same,IC50,HeLa [6],1000 nM
same,inhibition of growth at 5 µM,HeLa [21],> 60%
same,fold change (FC),[22],1.8
same,fold change (FC),[23],3.3
same,inhibition,FKBP1A,inactive

# From ChEMBL document CHEMBL3588828, “A Selective, Cell-Permeable Nonphosphorylated Bicyclic Peptidyl Inhibitor against Peptidyl-Prolyl Isomerase Pin1” (J Med Chem, 2015)
